Assay results from patent publication US20190192522A1, “INHIBITORS OF THE FIBROBLAST GROWTH FACTOR RECEPTOR 4 IN COMBINATION WITH CYCLIN-DEPENDENT KINASE INHIBITORS” (BLUEPRINT MEDICINES CORPORATION, priority 2016, published 2019).

How the values were obtained:
[1] = system: Huh-7 liver cancer xenograft; experiment: Huh-7 liver cancer xenograft efficacy study in female Balb/c nude mice; assay type: in vivo, Mus Musculus; conditions: day eighteen
Method: Each mouse was inoculated subcutaneously at the right flank with tumor cells (5×10^6) in 0.2 ml of PBS supplemented with Matrigel (50:50) for tumor development. The treatments were started on day 11 after tumor inoculation when the average tumor size reached approximately 183 mm^3. Each group consisted of nine tumor-bearing mice.
Tumor size was measured twice weekly in two dimensions using a caliper, and the volume was expressed in mm^3 using the formula: […]
where a and b are the long and short diameters of the tumor, respectively. The tumor size was then used to calculate TGI and T/C values.
TGI was calculated for each group using the formula: […]
where Ti is the average tumor volume of a treatment group on a given day; T0 is the average tumor volume of the treatment group on the day treatment began; Vi is the average tumor volume of the vehicle control group on the same day Ti was measured, and V0 is the average tumor volume of the vehicle group on the day treatment began. The T/C value (in percent) is an indication of antitumor effectiveness. T and C are the mean volumes of the treated and control groups, respectively, on a given day.
Summary statistics, including mean and the standard error of the mean (SEM), were provided for the tumor volume of each group at each time point. For tumor volume comparison among more than two groups, a one-way ANOVA was performed. For comparisons between two groups, a t-test was performed. All analysis was run in GraphPad Prism 5.0, with p<0.05 considered to be statistically significant.
For all groups, at four hours after last dosing, tumor samples were collected in less than one minute after the euthanasia. Four tumors in each group were snap frozen; four tumors were fixed and made into FFPE.

[2] = system: LIX-066 human primary hepatocellular carcinoma model; experiment: In vivo efficacy study in LIX-066 xenograft model; set-up: species or system mice; conditions: bid, po, D28
Method: LIX-066 was a human primary hepatocellular carcinoma model from ChemPartner. 130 mice were implanted for this study. Two animals were designated as sentinels; 2 animals were designated as extras.
Animals were monitored daily by general clinical observation throughout the study period. Body weights were recorded twice weekly before randomization and recorded every day during dosing period and the dose was adjusted per body weight. Tumor areas (length×width) was measured two to three times per week by using digimatic callipers throughout the study period and tumor volumes were calculated based on the following formula: tumor volume=[…]. The tumor volume was then used for calculations of net tumor growth inhibition (TGIn) values. The TGIn (in percent) is the indication of anti-tumor activity. TGIn (%)=[1−avTi-0/avCi-0)]×100; avTi-0 is the average of the tumor volume of each mouse in the treatment group on a specific day minus the tumor volume of each mouse in the treatment group on the first day; avCi-0 is the average of the tumor volume of each mouse in the Vehicle control group on a specific day minus the tumor volume of each mouse in the Vehicle control group on the first day of treatment. Efficacy data was graphically represented as the mean tumor volume±standard error of the mean (SEM).
Based on about 40% take rate, 50 animals were selected for efficacy study when their tumors reach appropriate size (100-300 mm^3). Five animals were used for plasma PK standard control. All other animals were euthanized. The 50 animals were randomized (blocked randomization/using Excel software) and divided into the following groups for compound administration:
Group 1: N=10; Vehicle control (PEG400: 20% HP-γ-CD=3:2)
Group 2: N=10; Compound 1, 30 mg/kg, bid, po
Group 3: N=10; Compound 1, 100 mg/kg, bid, po […]
All animals were monitored daily for clinical observation (animal mortality, appearance, spontaneous activity, body posture, and food and water intake. Any lesions and adverse reactions were recorded). […]
The mice were euthanized and the tumor weights were measured without sampling.

Hep3B tumor = experiment: In vivo efficacy study in Hep3B-FGF19 amplified mice; conditions: Compound 1 monotherapy
Method: (§1) A similar study as described above was carried out using Hep3B-FGF19 amplified mice. Tumor volume results are shown in (FIG. 10A). Compound 1 monotherapy induced Hep3B tumor shrinkage (100% regression, >20% CRs).

[3] = Tolerability in Hep3B and LIX-066 tumor models; assay type: in vivo
Method: All animals were monitored daily for clinical observation (animal mortality, appearance, spontaneous activity, body posture, and food and water intake. Any lesions and adverse reactions were recorded). Any animals showing signs of debilitation, marked body weight loss (>20%), cachexia or large tumors that would inhibit an animal's ability to eat and drink or mobility were euthanized immediately. Any animals with severely ulcerated, infected or severely hemorrhagic tumors, or tumors whose estimated weight exceed 20% of the body weight were euthanized.
as §1

[4] = system: HCC cell lines with an intact FGFR4 signaling pathway (FGFR4, FGF19, and KLB); conditions: Hagel et al., Cancer Discovery (2015); cited from earlier work
[5] = Body weight in Huh-7 xenograft study; conditions: palbociclib 90 mg/kg group, day fourteen
Method: Female Balb/c nude mice (Mus Musculus) between six and eight weeks old and weighing 18 to 20 g were used to evaluate the therapeutic efficacy of palbociclib and Compound 1 as monotherapies and in combination in Huh-7 liver cancer xenograft models. The tumor cells were maintained in vitro as a monolayer culture in DMEM medium supplemented with 10% heat inactivated fetal bovine serum at 37° C. in a 5% CO2 atmosphere. The tumor cells were routinely subcultured twice weekly by trypsin-EDTA treatment. The cells growing in an exponential growth phase were harvested and counted for tumor inoculation.
Palbociclib treated animals were supplied with sunflower seeds to mitigate body weight loss on and after day eight per the sponsor's approval.

**Q.** With `C=CC(=O)N[C@H]1CCOC[C@H]1Nc1ncc2cc(-c3c(Cl)c(OC)cc(OC)c3Cl)ccc2n1` [Compound 1, N-((3S,4S)-3-((6-(2,6-dichloro-3,5-dimethoxyphenyl)quinazolin-2-yl)amino)tetrahydro-2H-pyran-4-yl)acrylamide] as the compound, how does the T/C value ([1]; Compound 1 30 mg/kg bid) read?
**A.** Its T/C value is 57%.

**Q.** And the average tumor size ([1]; Compound 1 30 mg/kg bid)?
**A.** Its average tumor size is 1612 mm^3.

**Q.** What about the T/C value ([1]; Compound 1 100 mg/kg bid) of the same compound?
**A.** Its T/C value is 24%.

**Q.** What about the average tumor size ([1]; Compound 1 100 mg/kg bid) of the same compound?
**A.** Its average tumor size is 690 mm^3.

**Q.** What about the T/C value ([1]; Compound 1 200 mg/kg bid) of the same compound?
**A.** Its T/C value is 7%.

**Q.** And the average tumor size ([1]; Compound 1 200 mg/kg bid)?
**A.** Its average tumor size is 198 mm^3.

**Q.** What about the average tumor volume ([2]; Compound 1 30 mg/kg) of the same compound?
**A.** Its average tumor volume is 262.87 mm^3.

**Q.** What about the average tumor volume ([2]; Compound 1 100 mg/kg) of the same compound?
**A.** The average tumor volume was 168.03 mm^3.

**Q.** And the average tumor volume ([2]; Compound 1 200 mg/kg)?
**A.** Its average tumor volume is 112.22 mm^3.

**Q.** And the CRs (Hep3B tumor)?
**A.** Its CRs is over 20%.

**Q.** And the “Hep3B tumor shrinkage (regression)” value (Hep3B tumor)?
**A.** The value was 100%.

**Q.** What about the tolerability [3] of the same compound?
**A.** The tolerability was “well tolerated”.

**Q.** Which “proliferation in HCC cell lines” value [4] does the source give for `C=CC(=O)Nc1cccc(C)c1Nc1ncc2cc(-c3c(Cl)c(OC)cc(OC)c3Cl)ccc2n1` [Compound 2, N-(2-((6-(2,6-dichloro-3,5-dimethoxyphenyl)quinazolin-2-yl)amino)-3-methylphenyl)acrylamide] here?
**A.** Its value is “inhibit proliferation”.

**Q.** What does the source list for `CC(=O)c1c(C)c2cnc(Nc3ccc(N4CCNCC4)cn3)nc2n(C2CCCC2)c1=O` [palbociclib, 6-acetyl-8-cyclopentyl-5-methyl-2-{[5-(1-piperazinyl)-2-pyridinyl]amino}pyrido[2,3-d]pyrimidin-7(8H)-one, reference compound]?
**A.** T/C value ([1]; palbociclib 45 mg/kg): 71%; average tumor size ([1]; palbociclib 45 mg/kg): 1992 mm^3; T/C value ([1]; palbociclib 90 mg/kg): 41%; average tumor size ([1]; palbociclib 90 mg/kg): 1169 mm^3; body weight loss (same animal, euthanized) [5]: > 20%
